{"source": "paper PMC5020499", "about": "“Crystal structures of archaeal 2-oxoacid:ferredoxin oxidoreductases from Sulfolobus tokodaii” (Scientific Reports, 2016)", "target": "T1, StOFOR2 (Sulfurisphaera tokodaii, UniProt Q96XT2+Q96XT4)", "T1 construct": "gene ST2435; recombinant in E. coli C43(DE3), genes from S. tokodaii genomic DNA in pOFORAB (pET-17b based), untagged; (ab)2 heterotetramer with TPP, Mg2+, [4Fe-4S]", "T1 sequence (Q96XT2 whole entry)": "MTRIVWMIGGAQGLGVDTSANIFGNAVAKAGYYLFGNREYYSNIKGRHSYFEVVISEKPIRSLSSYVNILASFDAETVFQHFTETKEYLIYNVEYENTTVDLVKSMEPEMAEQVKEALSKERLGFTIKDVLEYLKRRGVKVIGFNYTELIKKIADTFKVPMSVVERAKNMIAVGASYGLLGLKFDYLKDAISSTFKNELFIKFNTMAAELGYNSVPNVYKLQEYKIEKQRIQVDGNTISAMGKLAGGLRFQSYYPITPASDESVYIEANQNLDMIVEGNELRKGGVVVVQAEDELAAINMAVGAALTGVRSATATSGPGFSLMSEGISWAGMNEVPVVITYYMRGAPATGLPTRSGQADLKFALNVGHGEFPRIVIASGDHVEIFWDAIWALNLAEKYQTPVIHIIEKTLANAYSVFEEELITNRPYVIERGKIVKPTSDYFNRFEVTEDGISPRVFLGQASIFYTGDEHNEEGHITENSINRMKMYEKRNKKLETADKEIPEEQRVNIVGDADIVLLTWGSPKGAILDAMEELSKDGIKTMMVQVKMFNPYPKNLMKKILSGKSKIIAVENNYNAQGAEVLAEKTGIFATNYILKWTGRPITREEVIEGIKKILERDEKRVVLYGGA", "T1 sequence (Q96XT4 whole entry)": "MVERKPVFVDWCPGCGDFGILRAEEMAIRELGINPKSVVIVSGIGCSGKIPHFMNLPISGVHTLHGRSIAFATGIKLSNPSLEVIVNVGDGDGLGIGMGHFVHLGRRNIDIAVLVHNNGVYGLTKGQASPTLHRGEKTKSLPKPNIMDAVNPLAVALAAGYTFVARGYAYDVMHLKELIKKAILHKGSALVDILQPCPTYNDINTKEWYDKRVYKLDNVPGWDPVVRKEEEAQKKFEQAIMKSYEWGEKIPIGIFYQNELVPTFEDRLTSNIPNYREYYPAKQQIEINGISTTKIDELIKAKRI", "experiment": "X-ray crystal structure, […] Å", "format": "binding", "details": "crystal soaked with 50 mM pyruvate for 30 min; active site, unreacted pyruvate", "data": [{"smiles": "CC(=O)C(=O)O", "note": "[pyruvate]", "values": [{"measurement": "X-ray crystal structure, 2.2 Å", "result": "we observed a separate density peak corresponding to the approximate size and shape of an unreacted pyruvate"}]}]}
